Laboratory results taken from BindingDB's records for doi:10.1021/jm030040o (Schering-Plough Research Institute, 2003).
pKi: −log10 of the molar value.

Target: Genome polyprotein (Hepatitis C virus)
Assay: Binding constant against hepatitis C virus (HCV) protease

| pKi | Compound |
| --- | --- |
| 6.22 | CC[C@H](NC(=O)[C@H](CC1CCCCC1)NC(=O)[C@@H](NC(=O)[C@H](CC(C)C)NC(=O)[C@@H](CCC(=O)O)NC(=O)[C@H](CC(=O)O)NC(C)=O)[C@@H](C)CC)C(=O)O [2-[(S)-(S)-2-((R)-2-{(S)-2-[(R)-2-((S)-2-Acetylamino-3-carboxy-propionylamino)-4-(S)-carboxy-butyrylamino]-4-methyl-pentanoylamino}-3-methyl-pentanoylamino)-3-cyclohexyl-propionylamino]-butyric acid] |
| 4.10 | CC[C@H](C)[C@H](NC(=O)[C@H](CC(C)C)NC(=O)[C@@H](CCC(=O)O)NC(=O)[C@H](CC(=O)O)NC(C)=O)C(=O)N[C@@H](CC1CCCCC1)C(=O)N[C@@H](CCS)C(=O)O [2-[(S)-(S)-2-((R)-2-{(S)-2-[(R)-2-((S)-2-Acetylamino-3-carboxy-propionylamino)-4-(S)-carboxy-butyrylamino]-4-methyl-pentanoylamino}-3-methyl-pentanoylamino)-3-cyclohexyl-propionylamino]-4-mercapto-butyric acid] |
| 6.30 | CC[C@H](C)[C@H](NC(=O)[C@H](CC(C)C)NC(=O)[C@@H](CCC(=O)O)NC(=O)[C@H](CC(=O)O)NC(C)=O)C(=O)N[C@@H](CC1CCCCC1)C(=O)N[C@@H](CSC)C(=O)O [(S)-4-((S)-2-Acetylamino-3-carboxy-propionylamino)-4-((R)-(S)-1-{1-[(R)-(R)-1-((S)-1-carboxy-2-methylsulfanyl-ethylcarbamoyl)-2-cyclohexyl-ethylcarbamoyl]-2-methyl-butylcarbamoyl}-3-methyl-butylcarbamoyl)-butyric acid] |
| 6.92 | CC[C@H](C)[C@H](NC(=O)[C@H](CC(C)C)NC(=O)[C@@H](CCC(=O)O)NC(=O)[C@H](CC(=O)O)NC(C)=O)C(=O)N[C@@H](CC1CCCCC1)C(=O)N[C@@H](CS)C(=O)O [(S)-4-((S)-2-Acetylamino-3-carboxy-propionylamino)-4-((R)-(S)-1-{1-[(R)-(R)-1-((S)-1-carboxy-2-mercapto-ethylcarbamoyl)-2-cyclohexyl-ethylcarbamoyl]-2-methyl-butylcarbamoyl}-3-methyl-butylcarbamoyl)-butyric acid] |
| 6.89 | CCC[C@H](NC(=O)[C@H](CC1CCCCC1)NC(=O)[C@@H](NC(=O)[C@H](CC(C)C)NC(=O)[C@@H](CCC(=O)O)NC(=O)[C@H](CC(=O)O)NC(C)=O)[C@@H](C)CC)C(=O)O [(S)-2-[(S)-2-((R)-2-{(S)-2-[(R)-2-((S)-2-Acetylamino-3-carboxy-propionylamino)-4-(S)-carboxy-butyrylamino]-4-methyl-pentanoylamino}-3-methyl-pentanoylamino)-3-cyclohexyl-propionylamino]-pentanoic acid] |
| 5.30 | CCSC[C@H](NC(=O)[C@H](CC1CCCCC1)NC(=O)[C@@H](NC(=O)[C@H](CC(C)C)NC(=O)[C@@H](CCC(=O)O)NC(=O)[C@H](CC(=O)O)NC(C)=O)[C@@H](C)CC)C(=O)O [(S)-4-((S)-2-Acetylamino-3-carboxy-propionylamino)-4-((R)-(S)-1-{1-[(R)-(R)-1-((S)-1-carboxy-2-ethylsulfanyl-ethylcarbamoyl)-2-cyclohexyl-ethylcarbamoyl]-2-methyl-butylcarbamoyl}-3-methyl-butylcarbamoyl)-butyric acid] |
| 5.70 | CCCC[C@H](NC(=O)[C@H](CC1CCCCC1)NC(=O)[C@@H](NC(=O)[C@H](CC(C)C)NC(=O)[C@@H](CCC(=O)O)NC(=O)[C@H](CC(=O)O)NC(C)=O)[C@@H](C)CC)C(=O)O [2-[(S)-(S)-2-((R)-2-{(S)-2-[(R)-2-((S)-2-Acetylamino-3-carboxy-propionylamino)-4-(S)-carboxy-butyrylamino]-4-methyl-pentanoylamino}-3-methyl-pentanoylamino)-3-cyclohexyl-propionylamino]-hexanoic acid] |
